Experimental data taken from US10662210B2, “Compositions and methods comprising osmium for the treatment of cancers” (Massachusetts Institute of Technology, priority 2014, dated 2020).
Read-outs that look alike come from different tables or passages of the source.

Assays:
Type in all cases: cell-based, human
[1] = system: A2780/CP70 (ovarian); assay: Cytotoxicity MTT assay; conditions: 72 h, cisplatin-resistant
Description: (§1) The anti-proliferative properties of 1-4 against a panel of human cancer cell lines were assessed by the MTT [3-(4,5-dimethylthiazol-2-yl)-2,5-diphenyltetrazolium bromide] assay. Cisplatin was included as a control. The IC50 values, concentrations required to induce 50% viability, were derived from dose-response curves and are summarized in Table 1.
(§2) A549 lung adenocarcinoma, HeLa cervical cancer, and MRC5 normal human fetal lung fibroblast cell lines were maintained in Dulbecco's Modified Eagle's Medium (DMEM-low glucose) supplemented with 10% fetal bovine serum and 1% penicillin/streptomycin. The cisplatin-sensitive A2780 ovarian cancer and the cisplatin-resistant A2780/CP70 ovarian cancer cell lines were cultured in RPMI (glutamine free) media supplemented with 10% fetal bovine serum and 1% penicillin/streptomycin. All cells were grown at 310 K in a humidified atmosphere containing 5% CO2.
(§3) The colorimetric MTT assay was used to determine the toxicity of the osmium complexes and cisplatin. Cells (2×10^3) were seeded in each well of a 96-well plate. After incubating the cells overnight, various concentrations of test compound (0.3-100 μM) were added and incubated for 72 h (total volume 200 μL). The test compounds were prepared as 10 mM solutions in DMSO and diluted using media. The final concentration of DMSO in each well was 0.5% and this amount was present in the untreated control as well. Cisplatin was prepared as a 5 mM solution in PBS and diluted further using media. After 72 h, the medium was removed, 200 μL of a 0.4 mg/mL solution of MTT in DMEM or RPMI was added, and the plate was incubated for an additional 1-2 h. The DMEM/MTT or RPMI/MTT mixture was aspirated and 200 μL of DMSO was added to dissolve the resulting purple formazan crystals. The absorbance of the solution wells was read at 550 nm. Absorbance values were normalized to DMSO-containing control wells and plotted as concentration of test compound versus % cell viability. IC50 values were interpolated from the resulting dose dependent curves. The reported IC50 values are the average from at least three independent experiments, each of which consisted of six replicates per concentration level.

[2] = system: A549 (lung); assay: Cytotoxicity MTT assay; conditions: 72 h
Description: as §1, §2, §3

[3] = system: HeLa (cervical); assay: Cytotoxicity MTT assay; conditions: 72 h
Description: as §1, §2, §3

[4] = system: MRC-5 (lung normal); assay: Cytotoxicity MTT assay; conditions: 72 h
Description: as §1, §2, §3

[5] = system: A2780 (ovarian); assay: Cytotoxicity MTT assay; conditions: for IC50: MTT, 72 h
Description: as §1, §2, §3

[6] = system: genomic DNA from A2780 cells; assay: Intracellular DNA osmium content; conditions: 10 μM, 12 h
Description: To gain further insight into the modes of action of 2 and 4, immunoblotting analyses were conducted to monitor changes in expression of biomarkers related to the DNA damage pathway (FIG. 8). […] This difference could be related to steric effects imposed by the phenyl groups in 4.
To measure the amount osmium on genomic DNA, ca. 1 million A2780 cells were treated with 10 μM of the complexes at 37° C. for 12 h. Then the media were removed, the cells were washed with PBS solution (1 mL×3), harvested, and centrifuged. The cellular pellet was suspended in DNAzol (1 mL, genomic DNA isolation reagent, MRC). The DNA was precipitated with ethanol (0.5 mL), washed with 75% ethanol (0.75 mL×3), and re-dissolved in 200 μL of 8 mM NaOH. The DNA concentration was determined by UV-visible spectroscopy, and osmium was quantified by GFAAS. The reported values are the average of at least three independent experiments with the error reported as the standard deviation.

[7] = system: A2780 cells; assay: Cytotoxicity MTT assay with pathway and cell death inhibitors; conditions: for effect of chloroquine and IM-54 on potency: inhibitors 10 μM; for effect of p53 inhibitors on toxicity: pifithrin-α and pifithrin-μ, both 10 μM; for IC50: 72 hours incubation
Description: (§4) This finding led to the investigation of the possibility that 4 may induce endoplasmic reticulum (ER) stress. Co-administration of 4 and salubrinal (10 μM), a known ER stress inhibitor, reduced the cytotoxicity of 4 in A2780 cells. […] To further validate the ER as the main target for 4, the expression of proteins related to the unfolded protein response (UPR) was monitored. […] ER membrane expansion is widely associated with ER stress. With this fact in mind the ER size of A2780 cells upon incubation with 4 were examined using fluorescence microscopy. Relative to untreated controls (FIG. 3B), cells exposed to 4 (10 μM) for 4 h had 25.1% larger ER coverage (FIG. 3C). The ER size relative to the whole cell of the untreated controls was about 30% and the ER size relative to the whole cell of the treated samples was about 55%.
Having established the intracellular targets of 2 and 4, the role of p53, a cell cycle and apoptosis regulator, in the cellular responses evoked was investigated. […] Therefore, p53 played a fundamental role in coordinating the cellular response to 2-induced DNA damage. […] (FIG. 13). […] To relate p53 to potency, cytotoxicity studies were conducted in the presence of p53 inhibitors pifithrin-α and pifithrin-μ. (both 10 μM). […] The IC50 values of compound 2 in the absence and presence of p53 inhibitor pifithrin-μ after 72 hours incubation was about 2 μM and about 30 μM, respectively.
as §3
For specific pathway and cell death inhibitor assays, inhibitors of p53 (pifithrin-α, 10 μM and pifithrin-μ, 10 μM), ER stress (salubrinal, 10 μM), necrosis (IM-54, 10 μM), and autophagocytosis (chloroquine, 10 μM) were added to cells and incubated for 0-1 h prior to treatment with the test compounds.

[8] = system: phosphorylated eIF2α and CHOP in A2780 cells; assay: Immunoblotting analysis, unfolded protein response; conditions: 72 hours
Description: as §4
A2780 cells (5×10^5 cells) were incubated with the osmium complexes (concentrations, μM) for 72 h at 37° C. Cells were washed with PBS, scraped into SDS-PAGE loading buffer (64 mM Tris-HCl (pH6.8)/9.6% glycerol/2% SDS/5% β-mercaptoethanol/0.01% Bromophenol Blue), and incubated at 95° C. for 10 min. […] After incubation with horseradish peroxidase-conjugated secondary antibodies (Cell Signalling Technology), immune complexes were detected with the ECL detection reagent (BioRad) and analyzed using an Alpha Innotech ChemiImager™ 5500 fitted with a chemiluminescence filter.

SMILES | IC50 [1] | IC50 [2] | IC50 [3] | IC50 [4] | IC50 [5] | Os/DNA ratio on genomic DNA [6] | effect of chloroquine and IM-54 on potency [7] | effect of p53 inhibitors on toxicity [7] | IC50 increase on co-administration of salubrinal compared to compound alone ([7]; salubrinal 10 μM) | phosphorylated eIF2α and CHOP expression [8] | higher potency for A2780 than for normal lung fibroblast MRC5 ([5]; A2780 vs MRC5) | IC50 ([7]; read-out: IC50 in the absence of pifithrin-α) | IC50 ([7]; read-out: IC50 in the absence of pifithrin-μ) | IC50 ([7]; pifithrin-α 10 μM, read-out: IC50 in the presence of pifithrin-α) | IC50 ([7]; pifithrin-μ 10 μM, read-out: IC50 in the presence of pifithrin-μ) | effect of salubrinal on toxicity ([7]; salubrinal 10 μM)
[N]#[Os]1([Cl])([Cl])([Cl])[N]2C=CC(c3ccccc3)=c3ccc4c(c32)[N]1C=CC=4c1ccccc1 [Complex 4, OsN(4,7-diphenyl-1,10-phenanthroline)Cl3] | 3.4 ± 0.28 µM | 1.97 ± 0.02 µM | 2.86 ± 0.51 µM | 8.45 ± 1.21 µM | 3.36 ± 0.09 µM | about 14 pmol/μg | little effect | unaffected | 13.3 fold | upregulated |  |  |  |  |  | 
[N]#[Os]1([Cl])([Cl])([Cl])[N]2C=CC=c3ccc4c(c32)[N]1C=CC=4 [Complex 2, OsN(1,10-phenanthroline)Cl3] | 2.96 ± 0.23 µM | 7.86 ± 1.41 µM | 6.95 ± 0.53 µM | 16.6 ± 3.61 µM | 1.99 ± 0.23 µM | about 21 pmol/μg | little effect | increased significantly |  | little effect | 8 fold | ~4.5 µM | ~2 µM | ~2 µM | ~30 µM | limited effect
